Assays:
[1] = system: TAOK1 (neojunction transcript); assay: In vivo PD RT-qPCR in NCI-N87 tumors, TAOK1; design: species or system mouse; conditions: 10 mg/kg IV single dose
[2] = system: FBXW5 (mature mRNA transcript); assay: In vivo PD RT-qPCR in NCI-N87 tumors, FBXW5; design: species or system mouse; conditions: 10 mg/kg IV single dose
N87 cells = assay: Cell viability CellTiter-Glo, N87; type: cell-based, human; conditions: unconjugated payload of the ADC
MCF7 cells = assay: Cell viability CellTiter-Glo, HER2-negative MCF7; conditions: unconjugated payload of the ADC
HCC1954 cells = assay: Cell viability CellTiter-Glo, HCC1954; type: cell-based; conditions: unconjugated payload of the ADC
SF3b complex = biological target: T1, SF3b complex (Homo sapiens, UniProt O75533+Q7RTV0); assay: SF3B1 binding / scintillation proximity assay (SPA); conditions: payload of the ADC; read-out: SPA-AT S GMean IC50 (nM) SF381 (WT) HELA.2
T1 construct: The beads were suspended and added to the prepared nuclear extracts

[3] = Chemical stability of ADC payload, pH 5.5 buffer; conditions: Table 26; corresponding payload, pH 5.5, 37C, t1/2
MOLP8 cells = assay: Cell viability, CD138-expressing MOLP8; type: cell-based; conditions: unconjugated payload of the ADC
THP1.1 = assay: Payload cell potency and lethality CTGlo 72 h, THP1.1; type: cell-based; conditions: payload
Ad2.2 pre-mRNA splicing = assay: In vitro splicing (IVS) RT-qPCR, Ad2.2 pre-mRNA, HeLa nuclear extract; type: biochemical; conditions: payload of the ADC; read-out: qPCR-IVS-AT S GMean IC50 (nM) Ad2.2 HELA.2
Method: To evaluate payload activity in a cell-free system, an in vitro splicing assay was performed. The payloads were incubated with nuclear extracts and pre-mRNA substrate minigenes.
HeLa nuclear extract preparation: HeLa S3 cell pellets were resuspended in hypotonic buffer (10 mM HEPES pH 7.9, 1.5 mM MgCl2, 10 mM KCl, 0.2 mM PMSF, 0.5 mM DTT) and the suspension was brought up to a total of 5 packed cell volume (PCV). After centrifugation, the supernatant was discarded, and the cells were brought up to 3 PCV with hypotonic buffer and incubated on ice for 10 min. Cells were lysed using a dounce homogenizer and then centrifuged. […]. The nuclei were gently mixed for 30 min before centrifuging. The supernatant (nuclear extract) was then dialyzed into storage buffer (20 mM HEPES pH 7.9, 100 mM KCl, 0.2 mM EDTA, 20% glycerol, 0.2 mM PMSF, 0.5 mM DTT). Protein concentration was determined using NanoDrop 8000 UV-Vis spectrophotometer (ThermoFisher Scientific).
IVS: All Ad2-derived sequences (Pellizzoni et al. (1998) Cell 95(5):615-24) were cloned into pcDNA3.1(+) vector (Promega) using 5′ EcoRI and 3′ Xbal restriction sites. The plasmids were linearized using Xbal and used as DNA templates in in vitro transcription reactions. The FtzΔi intron-less plasmid (Luo and Reed (1999) 96(26):14937-42) was linearized using EcoRI. All RNAs were in vitro transcribed and then purified using MEGAScript T7 (Invitrogen) and MegaClear (Invitrogen) kits, respectively. For splicing reactions using Ad2 variant pre-mRNAs, 1 μL reactions were prepared using 8 μg nuclear extracts prepared from HeLa S3, 2 ng pre-mRNA, 0.2 ng FTZΔi, and varying concentrations of compounds or DMSO. After a 15 min pre-incubation at 30° C., 1 μL splicing activation buffer (0.5 mM ATP, 20 mM creatine phosphate, 1.6 mM MgCl2) was added, and the reactions were incubated for 90 min at 30° C. The reactions were then quenched with 13 μL DMSO, and 25 nL was used for RT-qPCR. RT-qPCR reactions were prepared using TaqMan RNA-to-CT 1-step kit (Life Technologies), RNA from splicing reactions, Ad2 (forward: […]; reverse: […]; probe: […]) and Ftz (forward: […]; reverse: […]; probe: […]) mRNA primer-probe sets. Prism 7 (Graphpad) was used for non-linear regression curve fitting of the formed spliced product and normalized to the control (DMSO) sample. […] In the presence of payload, a decrease in the amount of spliced product was observed.

Ad2.1 pre-mRNA splicing = assay: In vitro splicing (IVS) RT-qPCR, Ad2.1 pre-mRNA, HeLa nuclear extract; type: biochemical; conditions: payload of the ADC; read-out: qPCR-IVS-AT S Gmean IC50 (nm) Ad2.1 HELA.2
Caco-2 cells = assay: Caco-2 permeability of ADC payload; type: in vitro ADME
Method: (§1) Integrity of cell monolayer was confirmed by TEER (transepithelial electrical resistance) and Lucifer yellow. Payloads were spiked in duplicate at 10 μM, separately, on both sides of the cell monolayer. Permeability rates from the apical to basolateral (A-B) direction and the basolateral to apical (B-A) direction were determined by sampling aliquots from both chambers immediately after treatment (t=0) and following incubation for 2 hours. Samples were protein precipitated with organic solvent containing internal standard and analyzed by LC-MS/MS (SCIEX; API 5500). The area ratio responses of payload/internal standard over time in both directions were used to generate permeability (cm/see) values. Efflux ratio was calculated by dividing B-A/A-B. Control compounds for low and high permeability and efflux behaved as expected.

[4] = Caco-2 permeability of ADC payload; type: in vitro ADME; conditions: human, Caco-2; payload, B-A/A-B; read-out: Eflux ratio
Method: as §1

Row | SMILES | TAOK1 neojunction transcript in tumors [1] | FBXW5 mature mRNA transcript in tumors [2] | Payload LD50 (N87 cells) [nM] | Payload LD50 (MCF7 cells) [nM] | Payload Rmin (%) (MCF7 cells) | Payload LD50 (HCC1954 cells) [nM] | Payload Rmin (%) (HCC1954 cells) | IC50 (SF3b complex) [nM] | pH 5.5 Stability (t1/2, 37C) [3] | LD50 (nM) (payload) (MOLP8 cells) | Rmin (%) (payload) (MOLP8 cells) | CTGlo-AT S GMean LD50 (nM) 72 h THP1.1 (THP1.1) [nM] | IC50 (Ad2.2 pre-mRNA splicing) [nM] | IC50 (Ad2.1 pre-mRNA splicing) [nM] | Permeability Caco-2 A-B (10e-6 cm/s) (Caco-2 cells; Table 26, corresponding payload, A-B) | permeability (in words) (Caco-2 cells; payload) | efflux ratio at 2 h, 10 μM [4]
1 | CC[C@H](O)[C@@H](C)C1OC1C[C@@](C)(O)/C=C/C=C(\C)[C@H]1OC(=O)C[C@H](O)CC[C@@](C)(OC)[C@@H](OC(=O)N2CCN(CCN3C(=O)C=CC3=O)CC2)/C=C/[C@@H]1C (stereo in doubt) [ADL14-D1, (2S,3S,6S,7R,10R,E)-10-hydroxy-2-((R,2E,4E)-6-hydroxy-7-((2S,3S)-3-((2R,3S)-3-hydroxypentan-2-yl)oxiran-2-yl)-6-methylhepta-2,4-dien-2-yl)-7-methoxy-3,7-dimethyl-12-oxooxacyclododec-4-en-6-yl 4-(2-(2,5-dioxo-2,5-dihydro-1 H-pyrrol-1-yl)ethyl)piperazine-1-carboxylate] | did not exhibit statistically significant changes | did not exhibit statistically significant changes | – | – | – | – | – | – | – | – | – | – | – | – | – | – | –
2 | CC[C@H](O)[C@@H](C)[C@H]1O[C@@H]1C[C@@](C)(O)/C=C/C=C(\C)[C@H]1OC(=O)C[C@H](O)CC[C@@](C)(OC)[C@@H](OC(=O)N2CCN(CCCC(=O)O)CC2)/C=C/[C@@H]1C [D25] | – | – | >200 | >200 | 65.639 | >200 | 26.882 | 14.6 | 3.4 | >400 | 5.94 | 2076.811 | 50.9 | 244 | 0.14 10e-6 cm/s | poorly permeable | 2.55
